According to publication PMC6409085, “Three odorant-binding proteins are involved in the behavioral response of Sogatella furcifera to rice plant volatiles” (PeerJ, 2019):
“And” between values parts separate entries of the source, which are not always exact repeats. Equal values may be shown once.

Key:
SfurOBP1 = SfurOBP1 (Sogatella furcifera, UniProt V5T8N5); assay: biochemical; format: binding; conditions: for Fluorescence competitive binding assay, fluorescence intensity: OBP1, three replicate columns
SfurOBP1, sequence (V5T8N5 entry or part of it): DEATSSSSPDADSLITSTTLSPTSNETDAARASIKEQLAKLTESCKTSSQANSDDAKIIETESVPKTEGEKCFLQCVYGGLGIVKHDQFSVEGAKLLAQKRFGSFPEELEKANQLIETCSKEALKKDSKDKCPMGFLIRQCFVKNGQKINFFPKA
Procedure, shortened: (§1)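 In 50 mM Tris-HCl pH 7.4, odorants displace 1-NPN (2.0 µM) from 2.0 µM protein. Emission at 390–490 nm under 337 nm excitation is measured 2 min after competitor addition, in triplicate. Ki is obtained from IC50 and the 1-NPN dissociation constant.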

SfurOBP11 = SfurOBP11 (Sogatella furcifera, UniProt V5T6E3); assay: biochemical; format: binding
SfurOBP11, sequence (V5T6E3 entry or part of it): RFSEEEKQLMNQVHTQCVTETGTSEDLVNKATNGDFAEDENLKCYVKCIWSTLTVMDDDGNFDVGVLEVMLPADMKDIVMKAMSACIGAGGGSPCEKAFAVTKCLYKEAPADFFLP
Procedure, shortened: as §1

SfurOBP2 = SfurOBP2 (Sogatella furcifera, UniProt V5T759); assay: biochemical; format: binding
SfurOBP2, sequence (V5T759 entry or part of it): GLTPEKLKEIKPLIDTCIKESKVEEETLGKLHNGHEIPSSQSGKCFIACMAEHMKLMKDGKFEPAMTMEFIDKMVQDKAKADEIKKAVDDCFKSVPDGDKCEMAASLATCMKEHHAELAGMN
Procedure, shortened: as §1

SfurOBP3 = SfurOBP3 (Sogatella furcifera, UniProt V5T818); assay: biochemical; format: binding; conditions: for Fluorescence competitive binding assay, fluorescence intensity: OBP3, three replicate columns;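 on Fluorescence competitive binding assay, fluorescence intensity: competitor odorant at 2 to 20 µM with protein and 1-NPN both 2.0 µM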
SfurOBP3, sequence (V5T818 entry or part of it): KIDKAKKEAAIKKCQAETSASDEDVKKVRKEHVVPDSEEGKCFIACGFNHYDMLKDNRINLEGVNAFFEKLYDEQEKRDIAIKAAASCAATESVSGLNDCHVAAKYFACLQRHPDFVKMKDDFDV
Procedure, shortened: as §1

S. furcifera adults = assay: Y-tube olfactometer behavioral trials; format: in vivo, Sogatella furcifera; conditions: odorant 50 µL/L vs hexane; adults
Procedure, shortened: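 Single S. furcifera adults (2 days post-emergence, starved 0.5 h) chose between odorant (100 µL of 50 µL/L on filter paper) and hexane control in a glass Y-tube, charcoal-filtered humidified air 300 mL/min per arm, 25 ± 1 °C, 50% RH. Choice scored if insect passed half an arm and stayed >1 min within 10 min; 45 insects per compound, chi-squared test.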
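Wherever Fluorescence competitive binding assay, fluorescence intensity is given: competitor odorant at 2 to 20 µM with protein and 1-NPN both 2.0 µM.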

## CC/C=C\CCO [(Z)-3-hexenol]
SfurOBP1
  IC50: > 20 µM
SfurOBP1; ligand concentration 2 (μM)
  Fluorescence competitive binding assay, fluorescence intensity: 6275 and 5762 and 6097
SfurOBP1; ligand concentration 4 (μM)
  Fluorescence competitive binding assay, fluorescence intensity: 7853 and 8652 and 8403
SfurOBP1; ligand concentration 6 (μM)
  Fluorescence competitive binding assay, fluorescence intensity: 6992 and 6382 and 6355
SfurOBP1; ligand concentration 8 (μM)
  Fluorescence competitive binding assay, fluorescence intensity: 6419 and 7196 and 6808
SfurOBP1; ligand concentration 10 (μM)
  Fluorescence competitive binding assay, fluorescence intensity: 6561 and 6490 and 6439
SfurOBP1; ligand concentration 12 (μM)
  Fluorescence competitive binding assay, fluorescence intensity: 6242 and 6220 and 5811
SfurOBP1; ligand concentration 14 (μM)
  Fluorescence competitive binding assay, fluorescence intensity: 5437 and 6035 and 6831
SfurOBP1; ligand concentration 16 (μM)
  Fluorescence competitive binding assay, fluorescence intensity: 6974 and 6042 and 5510
SfurOBP1; ligand concentration 18 (μM)
  Fluorescence competitive binding assay, fluorescence intensity: 6021 and 6159 and 6506
SfurOBP1; ligand concentration 20 (μM)
  Fluorescence competitive binding assay, fluorescence intensity: 6648 and 5435 and 5963
SfurOBP11
  IC50: 19.7 µM
SfurOBP11; ligand concentration 2, replicate 1
  Fluorescence intensity, fluorescence competitive binding assay, OBP11: 23102
SfurOBP11; ligand concentration 2, replicate 2
  Fluorescence intensity, fluorescence competitive binding assay, OBP11: 23122
SfurOBP11; ligand concentration 2, replicate 3
  Fluorescence intensity, fluorescence competitive binding assay, OBP11: 23081
SfurOBP11; ligand concentration 4, replicate 1
  Fluorescence intensity, fluorescence competitive binding assay, OBP11: 21959
SfurOBP11; ligand concentration 4, replicate 2
  Fluorescence intensity, fluorescence competitive binding assay, OBP11: 22135
SfurOBP11; ligand concentration 4, replicate 3
  Fluorescence intensity, fluorescence competitive binding assay, OBP11: 21783
SfurOBP11; ligand concentration 6, replicate 1
  Fluorescence intensity, fluorescence competitive binding assay, OBP11: 21447
SfurOBP11; ligand concentration 6, replicate 2
  Fluorescence intensity, fluorescence competitive binding assay, OBP11: 20794
SfurOBP11; ligand concentration 6, replicate 3
  Fluorescence intensity, fluorescence competitive binding assay, OBP11: 21118
SfurOBP11; ligand concentration 8, replicate 1
  Fluorescence intensity, fluorescence competitive binding assay, OBP11: 18781
SfurOBP11; ligand concentration 8, replicate 2
  Fluorescence intensity, fluorescence competitive binding assay, OBP11: 21016
SfurOBP11; ligand concentration 8, replicate 3
  Fluorescence intensity, fluorescence competitive binding assay, OBP11: 21554
SfurOBP11; ligand concentration 10, replicate 1
  Fluorescence intensity, fluorescence competitive binding assay, OBP11: 18621
SfurOBP11; ligand concentration 10, replicate 2
  Fluorescence intensity, fluorescence competitive binding assay, OBP11: 21154
SfurOBP11; ligand concentration 10, replicate 3
  Fluorescence intensity, fluorescence competitive binding assay, OBP11: 19973
SfurOBP11; ligand concentration 12, replicate 1
  Fluorescence intensity, fluorescence competitive binding assay, OBP11: 17455
SfurOBP11; ligand concentration 12, replicate 2
  Fluorescence intensity, fluorescence competitive binding assay, OBP11: 20348
SfurOBP11; ligand concentration 12, replicate 3
  Fluorescence intensity, fluorescence competitive binding assay, OBP11: 19925
SfurOBP11; ligand concentration 14, replicate 1
  Fluorescence intensity, fluorescence competitive binding assay, OBP11: 17235
SfurOBP11; ligand concentration 14, replicate 2
  Fluorescence intensity, fluorescence competitive binding assay, OBP11: 18458
SfurOBP11; ligand concentration 14, replicate 3
  Fluorescence intensity, fluorescence competitive binding assay, OBP11: 18680
SfurOBP11; ligand concentration 16, replicate 1
  Fluorescence intensity, fluorescence competitive binding assay, OBP11: 16257
SfurOBP11; ligand concentration 16, replicate 2
  Fluorescence intensity, fluorescence competitive binding assay, OBP11: 15961
SfurOBP11; ligand concentration 16, replicate 3
  Fluorescence intensity, fluorescence competitive binding assay, OBP11: 16778
SfurOBP11; ligand concentration 18, replicate 1
  Fluorescence intensity, fluorescence competitive binding assay, OBP11: 15893
SfurOBP11; ligand concentration 18, replicate 2
  Fluorescence intensity, fluorescence competitive binding assay, OBP11: 16090
SfurOBP11; ligand concentration 18, replicate 3
  Fluorescence intensity, fluorescence competitive binding assay, OBP11: 15799
SfurOBP11; ligand concentration 20, replicate 1
  Fluorescence intensity, fluorescence competitive binding assay, OBP11: 15616
SfurOBP11; ligand concentration 20, replicate 2
  Fluorescence intensity, fluorescence competitive binding assay, OBP11: 15707
SfurOBP11; ligand concentration 20, replicate 3
  Fluorescence intensity, fluorescence competitive binding assay, OBP11: 14975
SfurOBP2
  IC50: > 20 µM
SfurOBP2; ligand concentration 2 (unit not given), replicate column 1 of 3
  Fluorescence competitive binding assay, OBP2 (raw fluorescence reading): 19770
SfurOBP2; ligand concentration 2 (unit not given), replicate column 2 of 3
  Fluorescence competitive binding assay, OBP2 (raw fluorescence reading): 19248
SfurOBP2; ligand concentration 2 (unit not given), replicate column 3 of 3
  Fluorescence competitive binding assay, OBP2 (raw fluorescence reading): 18506
SfurOBP2; ligand concentration 4 (unit not given), replicate column 1 of 3
  Fluorescence competitive binding assay, OBP2 (raw fluorescence reading): 19551
SfurOBP2; ligand concentration 4 (unit not given), replicate column 2 of 3
  Fluorescence competitive binding assay, OBP2 (raw fluorescence reading): 19781
SfurOBP2; ligand concentration 4 (unit not given), replicate column 3 of 3
  Fluorescence competitive binding assay, OBP2 (raw fluorescence reading): 18404
SfurOBP2; ligand concentration 6 (unit not given), replicate column 1 of 3
  Fluorescence competitive binding assay, OBP2 (raw fluorescence reading): 19561
SfurOBP2; ligand concentration 6 (unit not given), replicate column 2 of 3
  Fluorescence competitive binding assay, OBP2 (raw fluorescence reading): 18769
SfurOBP2; ligand concentration 6 (unit not given), replicate column 3 of 3
  Fluorescence competitive binding assay, OBP2 (raw fluorescence reading): 17857
SfurOBP2; ligand concentration 8 (unit not given), replicate column 1 of 3
  Fluorescence competitive binding assay, OBP2 (raw fluorescence reading): 18896
SfurOBP2; ligand concentration 8 (unit not given), replicate column 2 of 3
  Fluorescence competitive binding assay, OBP2 (raw fluorescence reading): 18816
SfurOBP2; ligand concentration 8 (unit not given), replicate column 3 of 3
  Fluorescence competitive binding assay, OBP2 (raw fluorescence reading): 16878
SfurOBP2; ligand concentration 10 (unit not given), replicate column 1 of 3
  Fluorescence competitive binding assay, OBP2 (raw fluorescence reading): 17416
SfurOBP2; ligand concentration 10 (unit not given), replicate column 2 of 3
  Fluorescence competitive binding assay, OBP2 (raw fluorescence reading): 17439
SfurOBP2; ligand concentration 10 (unit not given), replicate column 3 of 3
  Fluorescence competitive binding assay, OBP2 (raw fluorescence reading): 16747
SfurOBP2; ligand concentration 12 (unit not given), replicate column 1 of 3
  Fluorescence competitive binding assay, OBP2 (raw fluorescence reading): 16106
SfurOBP2; ligand concentration 12 (unit not given), replicate column 2 of 3
  Fluorescence competitive binding assay, OBP2 (raw fluorescence reading): 16534
SfurOBP2; ligand concentration 12 (unit not given), replicate column 3 of 3
  Fluorescence competitive binding assay, OBP2 (raw fluorescence reading): 16305
SfurOBP2; ligand concentration 14 (unit not given), replicate column 1 of 3
  Fluorescence competitive binding assay, OBP2 (raw fluorescence reading): 14820
SfurOBP2; ligand concentration 14 (unit not given), replicate column 2 of 3
  Fluorescence competitive binding assay, OBP2 (raw fluorescence reading): 14819
SfurOBP2; ligand concentration 14 (unit not given), replicate column 3 of 3
  Fluorescence competitive binding assay, OBP2 (raw fluorescence reading): 14820
SfurOBP2; ligand concentration 16 (unit not given), replicate column 1 of 3
  Fluorescence competitive binding assay, OBP2 (raw fluorescence reading): 13168
SfurOBP2; ligand concentration 16 (unit not given), replicate column 2 of 3
  Fluorescence competitive binding assay, OBP2 (raw fluorescence reading): 12294
SfurOBP2; ligand concentration 16 (unit not given), replicate column 3 of 3
  Fluorescence competitive binding assay, OBP2 (raw fluorescence reading): 13106
SfurOBP2; ligand concentration 18 (unit not given), replicate column 1 of 3
  Fluorescence competitive binding assay, OBP2 (raw fluorescence reading): 12788
SfurOBP2; ligand concentration 18 (unit not given), replicate column 2 of 3
  Fluorescence competitive binding assay, OBP2 (raw fluorescence reading): 12466
SfurOBP2; ligand concentration 18 (unit not given), replicate column 3 of 3
  Fluorescence competitive binding assay, OBP2 (raw fluorescence reading): 12554
SfurOBP2; ligand concentration 20 (unit not given), replicate column 1 of 3
  Fluorescence competitive binding assay, OBP2 (raw fluorescence reading): 12993
SfurOBP2; ligand concentration 20 (unit not given), replicate column 2 of 3
  Fluorescence competitive binding assay, OBP2 (raw fluorescence reading): 12815
SfurOBP2; ligand concentration 20 (unit not given), replicate column 3 of 3
  Fluorescence competitive binding assay, OBP2 (raw fluorescence reading): 12410
SfurOBP3
  IC50: > 20 µM
SfurOBP3; ligand concentration 2
  Fluorescence competitive binding assay, fluorescence intensity: 48626 and 49734 and 49512
SfurOBP3; ligand concentration 4
  Fluorescence competitive binding assay, fluorescence intensity: 45649 and 45958 and 42870
SfurOBP3; ligand concentration 6
  Fluorescence competitive binding assay, fluorescence intensity: 41915 and 48260 and 45013
SfurOBP3; ligand concentration 8
  Fluorescence competitive binding assay, fluorescence intensity: 45442 and 45656 and 45548
SfurOBP3; ligand concentration 10
  Fluorescence competitive binding assay, fluorescence intensity: 40904 and 43831 and 42892
SfurOBP3; ligand concentration 12
  Fluorescence competitive binding assay, fluorescence intensity: 41218 and 40601 and 40113
SfurOBP3; ligand concentration 14
  Fluorescence competitive binding assay, fluorescence intensity: 34957 and 35609 and 37985
SfurOBP3; ligand concentration 16
  Fluorescence competitive binding assay, fluorescence intensity: 33728 and 34170 and 34618
SfurOBP3; ligand concentration 18
  Fluorescence competitive binding assay, fluorescence intensity: 37828 and 32491 and 33581
SfurOBP3; ligand concentration 20
  Fluorescence competitive binding assay, fluorescence intensity: 33910 and 32414 and 29949
S. furcifera adults
  number of insects choosing hexane arm: 13
  number of insects choosing volatilies arm: 13
  number of insects failed (no choice): 14
